Read-outs that look alike come from different tables or passages of the source.
Target: T1, recombinant active full-length human MEK7 (Homo sapiens, UniProt O14733)
T1 construct: recombinant active full-length human MEK7 (Carna Biosciences); purchased Carna Biosciences
T1 sequence (O14733 1-419): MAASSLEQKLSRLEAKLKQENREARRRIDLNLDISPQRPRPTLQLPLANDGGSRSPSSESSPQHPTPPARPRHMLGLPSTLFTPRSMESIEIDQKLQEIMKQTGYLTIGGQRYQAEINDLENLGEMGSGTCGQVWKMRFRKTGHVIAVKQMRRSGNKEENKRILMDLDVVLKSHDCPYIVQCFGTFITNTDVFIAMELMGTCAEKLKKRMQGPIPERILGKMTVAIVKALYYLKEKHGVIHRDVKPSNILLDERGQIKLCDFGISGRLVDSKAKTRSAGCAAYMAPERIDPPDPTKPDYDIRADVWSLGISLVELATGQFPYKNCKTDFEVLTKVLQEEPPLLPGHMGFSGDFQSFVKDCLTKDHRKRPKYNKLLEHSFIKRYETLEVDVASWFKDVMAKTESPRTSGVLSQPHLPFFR
Test: ADP-Glo kinase activity assay, MEK7 with JNK1 substrate
Assay type: biochemical
Details: for in vitro activity against MAP2K7, in words: ADP-Glo assay, comparison within the series
Procedure: Procedure for a 5 μL Kinase reaction using the ADP-Glo Kinase Assay Kit from Promega. Staurosporine was used as the positive control, and DMSO (vehicle) was employed as the negative control. Activity of recombinant active full-length human MEK7 (Carna Biosciences) was measured with recombinant full-length human substrate JNK1 (MAPK8). Using a Mantis, a mixture of MEK7 and JNK1 was dispensed into a 384-well low volume white Proxiplate. For each well, 4 ng of MEK7 and 600 ng of JNK1 in kinase buffer (CST) were used, accounting for 1 μL of this mixture per well. Inhibitor was prepared in a DMSO solution (40 mM). A dose-response dilution was performed in a 384-well Echo transfer plate. Using an Echo Access, 10 nL of each solution was dispensed into the same 384-well low volume white Proxiplate as above. This mixture was allowed to incubate for 30 minutes at room temperature. Using a Mantis, 1 uL of an 8 μM ATP solution was added to each well, and the plate was allowed to incubate for another 1 hour at room temperature. Using the Mantis again, 4 μL of ADP Glo Reagent was dispensed into each well, and the plate was allowed to incubate for 45 min at room temperature. Finally, 9 μL of Kinase Detection Reagent was added manually to each well, and the plate was allowed to incubate for 45 minutes at room temperature. Luminescence was read on a Synergy Neo2 Plate Reader with filter cubes 3 and 114. Integration time was set to 0.20 seconds, gain set to 160, and read height set at 6 mm. All experiments were performed in triplicate on the plate, and at least in one separate technical duplicate was performed.
MEK4 selectivity was performed in the same manner with activated MEK4 (Carna Biosciences). Here, p-38α was employed as the kinase substrate in lieu of JNK1 due to the availability of reagents. […] To probe the ATP-competitive nature of 25, this compound was subjected to a similar assay forgoing the 30 minute incubation time described above (STAR Protocols 2021, 2, 100717). The results are tabulated below in compound characterization. Potency determined by duplicate of triplicates corresponded to a IC50 value, which is in line with the ratio difference observed among other covalent inhibitors (for examples, see Cell Chem. Biol. 2020, 27, 1285).

[1] = 30 min preincubation, overall value of two experiments, read-out: MEK7 IC50
[2] = MEK7 IC50, first experiment (IC50±SEM, n=3), 30 min preincubation, first value in brackets
[3] = MEK7 IC50, second experiment (IC50±SEM, n=3), 30 min preincubation, second value in brackets
[4] = 30 min preincubation, read-out: MEK7 IC50

IC50 [1] [nM] | IC50 [2] [nM] | IC50 [3] [nM] | IC50 [4] [nM] | IC50 (read-out: MEK7 IC50, first experiment (IC50±SEM, n=3), 30 min preincubation, first value in brackets) [nM] | IC50 (read-out: MEK7 IC50, second experiment (IC50±SEM, n=3), 30 min preincubation, second value in brackets) [nM] | in vitro activity against MAP2K7, in words | MEK7 IC50, first experiment (IC50±SEM, n=3) (30 min preincubation, first value in brackets) [µM] | Structure (SMILES)
1100 | 1400 ± 810 | 830 ± 680 |  |  |  |  |  | O=C(CCl)Nc1cccc(Oc2cc(NCCc3ccc4c(c3)OCO4)ncn2)c1 [Compound 23, N-(3-((6-((2-(benzo[d][1,3]dioxol-5-yl)ethyl)amino)pyrimidin-4-yl)oxy)phenyl)-2-chloroacetamide]
42 |  |  | 42 | 42 ± 36 | 42 ± 58 |  |  | O=C(CCl)Nc1cccc(Oc2cc(NCc3ccc(F)c(F)c3)ncn2)c1 [Compound 29, 2-chloro-N-(3-((6-((3,4-difluorobenzyl)amino)pyrimidin-4-yl)oxy)phenyl)acetamide]
410 | 200 ± 410 | 640 ± 270 |  |  |  |  |  | O=C(CCl)Nc1cccc(Oc2cc(NCc3ccc(C(F)(F)F)cc3)ncn2)c1 [Compound 37, 2-chloro-N-(3-((6-((4-(trifluoromethyl)benzyl)amino)pyrimidin-4-yl)oxy)phenyl)acetamide]
1200 | 1100 ± 480 | 1300 ± 550 |  |  |  | towards the micromolar range |  | O=C(CCl)Nc1cccc(Oc2cc(NCc3ccccc3C(F)(F)F)ncn2)c1 [Compound 30, 2-chloro-N-(3-((6-((2-(trifluoromethyl)benzyl)amino)pyrimidin-4-yl)oxy)phenyl)acetamide]
110 | 140 ± 87 | 87 ± 42 |  |  |  | ten-fold attenuation |  | CN(Cc1ccccc1)c1cc(Oc2cccc(NC(=O)CCl)c2)ncn1 [Compound 24, N-(3-((6-(benzyl(methyl)amino)pyrimidin-4-yl)oxy)phenyl)-2-chloroacetamide]
1200 | 730 ± 220 | 1700 |  |  |  |  |  | O=C(CCl)Nc1cccc(Oc2cc(NCCc3ccccc3)ncn2)c1 [Compound 18]
8800 | 7700 ± 1300 | 9900 ± 1200 | 60 |  |  | less active than compound 8 |  | C=CC(=O)Nc1ccc(Oc2cc(NC)ncn2)cc1 [Compound 7, N-(4-((6-(methylamino)pyrimidin-4-yl)oxy)phenyl) acrylamide]
930 | 1200 ± 330 | 660 ± 310 |  |  |  |  |  | COc1ccc(CCNc2cc(Oc3cccc(NC(=O)CCl)c3)ncn2)cc1 [Compound 21, 2-chloro-N-(3-((6-((4-methoxyphenethyl)amino)pyrimidin-4-yl)oxy)phenyl)acetamide]
 |  |  |  |  |  | less potent |  | CNc1cc(Oc2cccc(NC(=O)C(C)(C)CCl)c2)ncn1 [Compound 11, 3-chloro-2,2-dimethyl-N-(3-((6-(methylamino)pyrimidin-4-yl)oxy)phenyl) propenamide]
800 | 590 ± 150 | 1000 ± 220 |  |  |  | towards the micromolar range |  | COc1ccccc1CNc1cc(Oc2cccc(NC(=O)CCl)c2)ncn1 [Compound 32, 2-chloro-N-(3-((6-((2-methoxybenzyl)amino)pyrimidin-4-yl)oxy)phenyl)acetamide]
 | 4000 ± 4400 | 8500 ± 9800 |  |  |  |  |  | O=C(CCl)Nc1cccc(Oc2cc(NCc3cc(C(F)(F)F)cc(C(F)(F)F)c3)ncn2)c1 [Compound 33, N-(3-((6-((3,5-bis(trifluoromethyl)benzyl)amino)pyrimidin-4-yl)oxy)phenyl)-2-chloroacetamide]
360 | 140 | 580 ± 200 |  |  |  |  |  | O=C(CCl)Nc1cccc(Oc2cc(NCc3ccc(F)cc3F)ncn2)c1 [Compound 27, 2-chloro-N-(3-((6-((2,4-difluorobenzyl)amino)pyrimidin-4-yl)oxy)phenyl)acetamide]
66 | 53 | 78 ± 91 |  |  |  | greatest potency |  | O=C(CCl)Nc1cccc(Oc2cc(NCCc3ccc(Cl)cc3)ncn2)c1 [Compound 19, 2-chloro-N-(3-((6-((4-chlorophenethyl)amino)pyrimidin-4-yl)oxy)phenyl)acetamide]
110 | 880 ± 29 | 140 ± 44 |  |  |  |  |  | O=C(CCl)Nc1cccc(Oc2cc(NCc3c(F)ccc(F)c3F)ncn2)c1 [Compound 28, 2-chloro-N-(3-((6-((2,3,6-trifluorobenzyl)amino)pyrimidin-4-yl)oxy)phenyl)acetamide]
3000 | 4200 ± 2500 | 1800 ± 1200 |  |  |  |  |  | O=C(CCl)Nc1cccc(Oc2cc(NCc3ccc(F)c(C(F)(F)F)c3)ncn2)c1 [Compound 31, 2-chloro-N-(3-((6-((4-fluoro-3-(trifluoromethyl)benzyl)amino)pyrimidin-4-yl)oxy)phenyl)acetamide]
360 | 420 ± 320 | 300 ± 150 |  |  |  |  |  | Cc1ccc(CNc2cc(Oc3cccc(NC(=O)CCl)c3)ncn2)cc1 [Compound 36, 2-chloro-N-(3-((6-((4-methylbenzyl)amino)pyrimidin-4-yl)oxy)phenyl)acetamide]
> 80000 |  |  |  |  |  | less potent |  | CC=CC(=O)Nc1cccc(Oc2cc(NC)ncn2)c1 (mixture of isomers) [Compound 10, (E/Z)—N-(3-((6-(methylamino)pyrimidin-4-yl)oxy)phenyl) but-2-enamide]
 |  |  |  |  |  | attenuated activity |  | CNc1cc(Oc2cccc(NC(=O)COC)c2)ncn1 [Compound 13, 2-methoxy-N-(3-((6-(methylamino)pyrimidin-4-yl)oxy)phenyl)acetamide]
260 | 390 ± 730 | 120 |  |  |  |  |  | COc1ccc(CNc2cc(Oc3cccc(NC(=O)CCl)c3)ncn2)cc1OC [Compound 35, 2-chloro-N-(3-((6-((3,4-dimethoxybenzyl)amino)pyrimidin-4-yl)oxy)phenyl)acetamide]
 |  |  |  |  |  |  | 1.3 ± 3.4 | O=C(CCl)Nc1cccc(Oc2cc(N3CCOCC3)ncn2)c1 [Compound 14, 2-chloro-N-(3-((6-morpholinopyrimidin-4-yl)oxy)phenyl)acetamide]
1800 | 1500 ± 210 | 2100 ± 1100 |  |  |  | less active than compound 8 |  | CNc1cc(Oc2ccc(NC(=O)CCl)cc2)ncn1 [Compound 6, 2-chloro-N-(4-((6-(methylamino)pyrimidin-4-yl)oxy)phenyl)acetamide]
1200 | 710 ± 400 | 1600 ± 1800 |  |  |  |  |  | O=C(CCl)Nc1cccc(Oc2cc(NCCc3ccc(F)cc3)ncn2)c1 [Compound 20, 2-chloro-N-(3-((6-((4-fluorophenethyl)amino)pyrimidin-4-yl)oxy)phenyl)acetamide]
260 | 300 ± 92 | 210 ± 180 |  |  |  | greatest potency |  | O=C(CCl)Nc1cccc(Oc2cc(NCCc3c[nH]c4ccccc34)ncn2)c1 [Compound 15, N-(3-((6-((2-(1H-indol-3-yl)ethyl)amino)pyrimidin-4-yl)oxy)phenyl)-2-chloroacetamide]
270 | 350 ± 150 | 190 ± 190 |  |  |  |  |  | O=C(CCl)Nc1cccc(Oc2cc(NC3CCCC3)ncn2)c1 [Compound 16, 2-chloro-N-(3-((6-(cyclopentylamino)pyrimidin-4-yl)oxy)phenyl)acetamide]
1700 | 1900 ± 550 | 1400 ± 970 |  |  |  |  |  | COc1ccc(CCNc2cc(Oc3cccc(NC(=O)CCl)c3)ncn2)cc1OC [Compound 22, 2-chloro-N-(3-((6-((3,4-dimethoxyphenethyl)amino)pyrimidin-4-yl)oxy)phenyl)acetamide]

— patent publication US20250049791A1, “Synthesis of MEK7 Inhibitors and methods of Use Thereof” (Northwestern University, priority 2023, published 2025)
